The target in assay [1] is T1, DNA topoisomerase II (Homo sapiens) (UniProt P11388+Q02880). The assay can be described thus: Compound was tested for DNA Topoisomerase II mediated cleavage of DNA; No increase. It is filed as protein assay.
Assay [2] has as its target T1, DNA topoisomerase II (Homo sapiens). Kind of assay: Compound was tested for DNA Topoisomerase II mediated cleavage of DNA; inactive. The assay is classed as protein assay.
Assay [3] shares this target. Kind of assay: Compound was tested for DNA Topoisomerase II mediated cleavage of DNA; Each (+) indicates 1 to 2 -fold increase. It is filed as protein assay.
The test system of assay [4] is Nucleic Acid. The assay can be described thus: DNA intercalating activity was determined; Each (+) indicates 1 to 2 -fold increase. It is filed as functional.
Assay [5] concerns the target T1, DNA topoisomerase II (Homo sapiens). The assay can be described thus: Compound was tested for DNA Topoisomerase II mediated cleavage of DNA; Each + indicates 2 to 4 fold increase. It is filed as protein assay.
Assay [6] relates to Nucleic Acid. Kind of assay: DNA intercalating activity was determined; Each + indicates a 2 to 4 fold increase. It is filed as functional.

Drawing on ChEMBL document CHEMBL1150465, “DNA topoisomerase II inhibition by substituted 1,2,3,4-tetrahydro--carboline derivatives” (Bioorg Med Chem Lett, 1994), this text covers Activity for nine compounds.

Molecules are shown by their SMILES. Calls of active or inactive are those of the source. No cut-off for these calls is given here.

As to `COC(=O)N1CCc2cc3c(cc2C1c1cc(OC)c(O)c(OC)c1)OCO3` (configuration not stated), the Activity result in assay [1] is “No increase”. On to `COC(=O)N1CCc2c([nH]c3ccccc23)C1c1cc(OC)c(OC)c(OC)c1` (configuration not stated), for which the result in assay [2] was inactive. On to `COC(=O)N1CCc2c([nH]c3ccccc23)C1c1ccc(NS(C)(=O)=O)c(OC)c1` (configuration not stated), for which the Activity entry in assay [3] was “+”. With `COc1cc([C@@H]2c3cc4c(cc3[C@@H](O[C@@H]3O[C@@H]5CO[C@@H](C)O[C@H]5[C@H](O)[C@H]3O)[C@H]3COC(=O)[C@H]23)OCO4)cc(OC)c1O`, the Activity entry is “(+)” in assay [4] and “++” in assay [5]. Consider `COC(=O)N1CCc2c([nH]c3ccccc23)C1c1ccc(O)cc1` (configuration not stated), for which the result in assay [2] was inactive.

For `COC(=O)N1CCc2c([nH]c3ccccc23)C1c1ccc(N)c(OC)c1` (configuration not stated), in assay [3], the Activity entry is “+”. As to `COC(=O)N1CCc2c([nH]c3ccccc23)C1c1cc(OC)c(O)c(OC)c1` (stereo in doubt; 4), the Activity entry in assay [6] was “denotes 2 to 4 fold increase”; in assay [5], “++(+)”.

`COC(=O)N1CCc2c([nH]c3ccccc23)C1c1cc(OC)c(O)c(OC)c1` (stereo in doubt; 5): the Activity entry in assay [4] is “(+)”; in assay [5] it was “denotes 2 to 4 fold increase”. `COc1cc(C2C3Nc4ccccc4C3CC3CCC(=O)N32)cc(OC)c1O` (configuration not stated): the Activity result in assay [5] is “++”.
